One series can be described thus: Solubility. The series is classed as physicochemical.
Series [1] is described as follows: Hydrolysis rate in alkali conditions. The series is classed as physicochemical. The method, then:
Statistical analysis. Each drug was tested at 6-7 different concentrations ranging from 0.0001 μM to 100 μM. Each assay was set up in triplicate wells and repeated 1-3 times. An IC50 value was calculated from each set of triplicate wells using nonlinear regression modeling of the exponential form of the linearized equation (Statview, SAS Institute, Inc., Cary, N.C.). Hydrolysis rates were determined by fitting single exponential decay equations to the disappearance of the compound in alkali conditions (all R^2 values greater than 0.85). The IC50 values obtained were correlated to the log transformed hydrolysis rate constants by fitting a linear model (JMP Software, SAS Institute Inc., Cary, N.C.). P-values less than 0.05 were deemed significant.

Series [2] in a line: Octanol/water partition coefficient, shake flask method. The series is classed as physicochemical. As to conditions: 4 hours at room temperature. The protocol: HPLC purification was achieved using a reverse-phase Lichrospher column (250×4 mm, Hewlett-Packard, RP-18, Cat. #79925) and an isocratic flow (1 ml/minute) consisting of water (70%) and acetonitrile (30%). Melting points were determined using a Melt John's apparatus and are uncorrected. Column chromatography was performed using silica gel obtained from Baker Company. The octanol/water partition coefficient was determined by the shake flask method. The phosphoramidate analogs were added to 2 ml of water and 2 ml of octanol in a glass vial. The mixture was shaken for 4 hours at room temperature. The two phases were carefully separated and filtered through a Millipore filter and analyzed by HPLC. The partition coefficient was calculated using the ratio of the area under the curve for octanol and water, respectively.

In series [3] the test system is adenovirus strain Type 5, strain adenoid 75. The experiment in a line: Adenovirus plaque formation assay in skin fibroblast cell line SF. In kind it is cell-based, human adenovirus. As to conditions: Adenovirus Type 5, 7 days, ± s.e., read-out: IC50, ADV-induced plaque formation. From the text: Virus stocks. The HIV-1 strain used in this study was HTLV-IIIB (Uckun et al., 1998 Antimicro. Agents and Chemother., 42:383-388). The non-HIV viruses included in the present study were the gancyclovir-sensitive cytomegalovirus (CMV) strain AD169 (ATCC VR-538); acyclovir-sensitive herpes simplex virus (HSV) Type I strain HF (ATCC VR-260); acyclovir-sensitive HSV Type II strain G (ATCC VR-734); adenovirus strain Type 5, strain adenoid 75 (ATCC VR-5); enterovirus strain, ECHO 30, strain Bastianni (ATCC VR-322); and respiratory syncytial virus (RSV), strain Long (ATCC VR-26).
Plaque formation assays. Plaque assays were used to examine the activity of the compounds against non-HIV viruses. The skin fibroblast cell line SF (ATCC CRL-2097) was used as a target for AD169, Adenovirus Type 5. […] cell line (ATCC CCL-81) was used as a target for HSV HF and G. The HEP-2 cell line (ATCC CCL-23) was used as a target for the RSV strain Long. These cell lines were cultured at 1×10^5 cells/well in 24-well (all but ECHO 30-infected SF) or 6-well (ECHO 30-infected SF) tissue culture plates with 0.9% methylcellulose or 0.4% SeaPlaque agarose semisolid support. Minimum Essential Medium (MEM) with Earle's salts (Gibco), L-glutamine, non-essential amino acids, 2% heat-inactivated fetal bovine serum, 1% penicillin/streptomycin, and 0.05% gentamicin served as the culture medium. The incubation times were 3 days for HF, G, ECHO 30, and Long; and 7 days for AD169 and Adenovirus Type 5. Plaque counting was performed with a 20X dissecting microscope for AD169, Type 5, ECHO 30, and RSV Long, and with a light box for HF and G. The fixative agent was crystal violet for all viruses, except for the CMV strain AD169 for which methylene blue was used. Percent inhibition of plaque formation was calculated by comparing the plaque numbers from the test substance-treated infected cells with the plaque numbers from untreated infected cells (i.e., virus controls). The IC50 values were determined using the Statview statistics program (SAS Institute, Inc., Cary, N.C.).
Statistical analysis. Each drug was tested at 6-7 different concentrations ranging from 0.0001 μM to 100 μM. Each assay was set up in triplicate wells and repeated 1-3 times. An IC50 value was calculated from each set of triplicate wells using nonlinear regression modeling of the exponential form of the linearized equation (Statview, SAS Institute, Inc., Cary, N.C.). […] The IC50 values obtained were correlated to the log transformed hydrolysis rate constants by fitting a linear model (JMP Software, SAS Institute Inc., Cary, N.C.). P-values less than 0.05 were deemed significant.
The skin fibroblast cell line SF (ATCC CRL-2097) was used as a target for AD169, Adenovirus Type 5, and ECHO 30; the VERO cell line (ATCC CCL-81) was used as a target for HF and G; and the HEP-2 cell line (ATCC CCL-23) was used as target for the RSV strain Long. Results are expressed as the average IC50 values in μM. Stavudine (STV) was included as a control.

Series [4] can be described thus: Pharmacokinetic studies in mice, intravenous administration. In kind it is in vivo, Balb/c mice. As to conditions: plasma analyte = label, after i.v. 100 mg/kg compound 113.
Procedure: Female Balb/c mice (6-8 weeks old) from Taconic (Germantown, N.Y.) were housed in a controlled environment (12-hours of light/12-hours of dark, 22±1° C., 60±10% relative humidity), which is fully accredited by the USDA. All rodents were housed in microisolator cages (Lab Products, Inc., NJ) containing autoclaved bedding. The mice were allowed free access to autoclaved pellet food and tap water throughout the study.
Blood samples (˜500 μL) were obtained from the ocular venous plexus by retro-orbital venipuncture at 0, 2, 5, 10, 15, 30, 45, 60, 120, 240 and 360 minutes after intravenous injection.
All collected blood samples were heparinized and centrifuged at 7000×g for 5 minutes to separate the plasma fraction from the whole blood. The plasma samples were then processed immediately using the extraction procedure described above.
Pharmacokinetic modeling and parameter calculations were carried out using the WinNonlin Professional Version 3.0 (Pharsight, Inc., Mountain, Calif.) pharmacokinetics software (Chen et al., Pharm. Res., 16, 1003 (1999); Chen et al., Pharm. Res., 16, 117 (1999); Chen et al., J. Clin. Pharmacol., 39, 1248 (1999); Uckun et al., Clin. Cancer Res., 5, 2954 (1999); and Uckun et al., J. Pharmacol. Exp. Ther., 291, 1301 (1999)). An appropriate model was chosen on the basis of the lowest sum of weighted squared residuals, the lowest Schwartz Criterion (SC), the lowest Akaike's Information Criterion (AIC) value, the lowest standard errors of the fitted parameters, and the dispersion of the residuals. The elimination half-life was estimated by linear regression analysis of the terminal phase of the plasma concentration-time profile. The area under the concentration-time curve (AUC) was calculated according to the linear trapezoidal rule between the first sampling time (0 hours) and the last sampling time plus C/k, where C is the concentration of the last sampling and k is the elimination rate constant. The systemic clearance (CL) was determined by dividing the dose by the AUC. The metabolic clearance of the parent drug, the formation clearance of the metabolite, the clearance elimination of the metabolite, and the distribution clearance of the metabolite were estimated by simultaneous fitting of the concentration of parent drug and metabolites as a function of time curve to pharmacokinetic models (see FIGS. 7A & 8A) specified as a system of differential equations (Gabrielsson & Weiner, Phamacokinetic/Phamacodynamic Data Analysis: Concepts and Applications, Swedish Pharmaceutical Press (1997)).
The mark [5] stands for this setting: estimate from composite curve of pooled data.

In brackets after ≈: the same amount, converted by molar mass. Marks after values point to notes of the source that are not given here.

By Solubility is commonly meant how much of the substance goes into solution per volume. A high value points to much dissolved substance. Usually IC50 stands for the concentration at which inhibition is half-maximal. Consider `COC(=O)[C@H](C)NP(=O)(OCC1C=CC(n2cc(C)c(=O)[nH]c2=O)O1)Oc1ccc(F)cc1` (stereo partly shown) [Compound 604, 5′-[4-Flurophenylmethoxyalaninyl phosphate]-2′, 3′-didehydro-3′-deoxy thymidine], for which, in the series “Solubility”, the Solubility was determined as 7500 µg/mL. Besides, the “Hydrolysis Rate” value in series [1] came out at 0.0117 min⁻¹. Further, the “Oct/Water (log P)” value in series [2] is recorded as 0.54. Further, the IC50 in series [3] worked out at 100 ± 40 nM.

In turn, `COC(=O)C(C)NP(=O)(OCC1C=CC(n2cc(C)c(=O)[nH]c2=O)O1)Oc1ccccc1Br` (stereo not shown) [Compound 605, 5′-[2-Bromophenylmethoxyalaninyl phosphate]-2′, 3′-didehydro-3′-deoxy thymidine] showed a Solubility in the series “Solubility” of 4200 µg/mL. The “Hydrolysis Rate” value in series [1] was 0.0336 min⁻¹. Besides, the “Oct/Water (log P)” value in series [2] is 0.95. The IC50 in series [3] was 38.5 ± 22 nM.

In turn, `COC(=O)C(C)NP(=O)(OCC1C=CC(n2cc(C)c(=O)[nH]c2=O)O1)Oc1c(OC)cccc1OC` (stereo not shown) [Compound 600, 5′-[2,6-Dimethoxyphenylmethoxyalaninyl phosphate]-2′, 3′-didehydro-3′-deoxy thymidine] returned a Solubility in “Solubility” of 43600 µg/mL. Moreover, in series [1], the “Hydrolysis Rate” value is 0.0029 min⁻¹. For the same compound, in series [2], the “Oct/Water (log P)” value is given as 0.40. Besides, the IC50 in series [3] was found to be 290 ± 120 nM.

One may read the Vss as a proportionality between amount in the body and measured concentration, not a real space. In the case of `COC(=O)[C@H](C)NP(=O)(OC[C@@H]1C=C[C@H](n2cc(C)c(=O)[nH]c2=O)O1)Oc1ccc(Br)cc1` (stereo partly shown), the distribution volume (Vss) in series [4] (setting [5]) is 0.8521 L/kg; in series [4] (mean ± S.E.M) it was “(1005.3 ± 134.0) ml/kg”.

In “Solubility”, `COC(=O)[C@H](C)NP(=O)(OCC1C=CC(n2cc(C)c(=O)[nH]c2=O)O1)Oc1ccc(OC)cc1` (stereo partly shown) [Compound 598, 5′-[4-Methoxyphenyl methoxylaninylphosphate]-2′, 3′-didehydro-3′-deoxy thymidine] displayed a Solubility of 11900 µg/mL (≈ 24 mM). The “Hydrolysis Rate” value in series [1] is 0.0102 min⁻¹. The “Oct/Water (log P)” value in series [2] is 0.39. For the same compound, the concentration for half-maximal inhibition (IC50) in series [3] is 555 ± 115 nM.

The compound `COC(=O)C(C)NP(=O)(OCC1C=CC(n2cc(C)c(=O)[nH]c2=O)O1)Oc1cc(Cl)ccc1Cl` (stereo not shown) [Compound 608, 5′-[2,5-Dichlorophenylmethoxyalaninyl phosphate]-2′, 3′-didehydro-3′-deoxy thymidine] returned a Solubility in the series “Solubility” of 3700 µg/mL. Also, in series [1], the “Hydrolysis Rate” value is 0.1840 min⁻¹. Also, in series [2], the “Oct/Water (log P)” value was 1.41. Further, the IC50 in series [3] was found to be 33 ± 17 nM.

As to `COC(=O)C(C)NP(=O)(OCC1C=CC(n2cc(C)c(=O)[nH]c2=O)O1)Oc1ccc(Br)cc1Cl` (stereo not shown) [Compound 603, 5′-[4-Bromo-2-chlorophenylmethoxyalaninyl phosphate]-2′, 3′-didehydro-3′-deoxy thymidine], in the series “Solubility”, the Solubility was 1800 µg/mL. Besides, the “Hydrolysis Rate” value in series [1] amounted to 0.1500 min⁻¹. Further, in series [2], the “Oct/Water (log P)” value amounted to 1.81. Besides, the IC50 in series [3] worked out at 80 ± 10 nM.

On to `COC(=O)C(C)NP(=O)(OCC1C=CC(n2cc(C)c(=O)[nH]c2=O)O1)Oc1cccc(Br)c1` (stereo not shown) [Compound 602, 5′-[3-Bromophenylmethoxyalaninyl phosphate]-2′, 3′-didehydro-3′-deoxy thymidine], for which the “Hydrolysis Rate” value in series [1] is 0.0338 min⁻¹. The IC50 in series [3] was 235 ± 145 nM.

Take `COC(=O)[C@H](C)NP(=O)(OCC1C=CC(n2cc(C)c(=O)[nH]c2=O)O1)Oc1ccc(Br)cc1` (stereo partly shown): the volume of distribution (Vss) in series [4] (setting [5]) was 0.7311 L/kg; in series [4] (mean ± S.E.M), “(791.8 ± 113.1) ml/kg”.

`COC(=O)[C@H](C)NP(=O)(OCC1C=CC(n2cc(C)c(=O)[nH]c2=O)O1)Oc1ccccc1` (stereo partly shown) [Compound 607, 5′-[Phenyl methoxylaninylphosphate]-2′, 3′-didehydro-3′-deoxy thymidine] had a Solubility in the series “Solubility” of 44700 µg/mL (≈ 96 mM). The “Hydrolysis Rate” value in series [1] was 0.0082 min⁻¹. The “Oct/Water (log P)” value in series [2] was found to be 0.38. In series [3], the half-maximal inhibitory concentration (IC50) came to 57.5 ± 23 nM.

`COC(=O)[C@H](C)NP(=O)(OCC1C=CC(n2cc(C)c(=O)[nH]c2=O)O1)Oc1cccc(N(C)C)c1` (stereo partly shown) [Compound 599, 5′-[3-Dimethylaminophenyl methoxylaninylphosphate]-2′, 3′-didehydro-3′-deoxy thymidine] displayed a Solubility in “Solubility” of 18000 µg/mL (≈ 35.4 mM). The “Hydrolysis Rate” value in series [1] was determined as 0.0058 min⁻¹. In addition, the “Oct/Water (log P)” value in series [2] turned out to be 0.76. Also, in series [3], the IC50 is 230 ± 20 nM.

Turning to `COC(=O)C(C)NP(=O)(OCC1C=CC(n2cc(C)c(=O)[nH]c2=O)O1)Oc1ccccc1Cl` (stereo not shown) [Compound 606, 5′-[2-Chlorophenylmethoxyalaninyl phosphate]-2′, 3′-didehydro-3′-deoxy thymidine], the Solubility in “Solubility” was found to be 7300 µg/mL. Also, the “Hydrolysis Rate” value in series [1] was found to be 0.0370 min⁻¹. In series [2], the “Oct/Water (log P)” value is reported as 0.84. Also, the IC50 in series [3] was determined as 28.5 ± 12 nM.

Regarding `COC(=O)[C@H](C)NP(=O)(OCC1C=CC(n2cc(C)c(=O)[nH]c2=O)O1)Oc1ccc(C#N)cc1` (stereo partly shown) [Compound 601, 5′-[4-Cyanophenylmethoxyalaninyl phosphate]-2′, 3′-didehydro-3′-deoxy thymidine], the Solubility in “Solubility” came to 4000 µg/mL. In addition, in series [1], the “Hydrolysis Rate” value was 0.1199 min⁻¹. Moreover, the “Oct/Water (log P)” value in series [2] is recorded as 0.05*. The IC50 in series [3] came out at 575 ± 5 nM.

Values taken from patent US20030236218A1, “Aryl phosphate derivatives of d4T with selective activity against adenovirus and HIV” (priority 2002, published 2003).
